Test results published in patent publication US11666640B2, “Glucose oxidase compositions as a neonate anticonvulsant” (PENN STATE RESEARCH FOUNDATION, priority 2018, dated 2023).
“Also recorded” adds a separate entry of the source.

Experiments:
[1] = test system: GABA-induced neuronal activity; experiment: Cell-attached recording of spike firing elicited by isoguvacine in CA3 pyramidal neurons; type: cell-based, mouse; details: P8-9, isoguvacine 10 μM, 30 s
Description: Besides EGABA, the effects of different drugs on GABA-induced neuronal activity during epileptogenesis were investigated in neonatal animals (e.g., P8-9). To accurately measure GABA-induced neuronal activity, cell-attached recordings monitored spike firing elicited by local application of the GABAA-R agonist isoguvacine (10 μM, 30 s). Tyzio et al., “Maternal oxytocin triggers a transient inhibitory switch in GABA signaling in the fetal brain during delivery” Science 314:1788-1792 (2006). […] FIG. 16K, control, (n=32). […] FIG. 16K, 0 Mg^2+ (n=19). […] FIG. 16K; 0 Mg^2++Bum (n=19); and 0 Mg^2++VU (n=21). […] FIG. 16K; 0 Mg^2++NaGcA (n=18).

[2] = test system: GABAA-R reversal potential (EGABA); experiment: Gramicidin-perforated whole-cell recording of GABAA-R reversal potential (EGABA) in CA3 pyramidal neurons; type: cell-based, mouse; details: for positive EGABA shift induced by 0 Mg2+ aCSF: neonatal CA3 neurons; for EGABA in 0 Mg2+ aCSF: neonatal P8-P9, 0 Mg2+ aCSF; for EGABA in 0 Mg2+ aCSF / EGABA in normal aCSF: bumetanide 10 μM, VU0240551 10 μM, NaGcA 20 mM; for EGABA in normal aCSF: neonatal P8-P9
Description: To further test this idea, the GABAA-R reversal potential (EGABA), which governs GABA excitatory versus inhibitory function, was directly measured using gramicidin-perforated whole-cell recordings in neonatal mouse brain slices (e.g., P8-P9). As expected, epileptiform activity induced a large depolarizing shift in EGABA after treating hippocampal slices with 0 Mg^2+ aCSF for 1 h (aCSF: −59.2±2.0 mV, n=13; 0 Mg^2+: −48.2±1.1 mV, n=10). FIG. 16D. Treatment with bumetanide (Bum, 10 μM), a specific blocker for NKCC1 at low concentrations, induced a hyperpolarizing shift in EGABA (blue line) as compared to a control EGABA (dashed line). […]. […] Kaila et al., “Cation-chloride cotransporters in neuronal development, plasticity and disease” Nature Reviews. Neuroscience 15:637-654 (2014); Dzhala et al., “NKCC1 transporter facilitates seizures in the developing brain” Nature Medicine 11:1205-1213 (2005); and Loscher et al., “Cation-chloride cotransporters NKCC1 and KCC2 as potential targets for novel antiepileptic and antiepileptogenic treatments” Neuropharmacology 69:62-74 (2013). […] FIG. 16E, yellow line; Bum, −68.0±1.7 mV (n=9); 0 Mg^2++Bum, −50.2±1.4 mV (n=9); (p<0.002).

hippocampal slices = experiment: Field potential recording of epileptiform activity in hippocampal slices (CA3 pyramidal layer); type: cell-based, mouse; details: 100 μm (FIG. 10)
[3] = test system: KA induced neonatal seizure; experiment: KA-induced neonatal seizure, in vivo EEG recording; parameters: species or system rat; details: for reduction of relative EEG power: last 30 min of a 2-hr recording period after KA injection, neonatal
Description: For example, neonatal rats were administered gluconate to determine the effect on in vivo epileptic seizures in neonatal and adult animals. […] FIGS. 14A and 14B; Dzhala et al., “NKCC1 transporter facilitates seizures in the developing brain” Nature Medicine 11:1205-1213 (2005). […] FIGS. 14C and 14D.
To test the in vivo anti-epilepsy effects of gluconate in neonatal and adult rodents, P8-12 Sprague-Dawley rats or 2-month old male C57BL/6 mice were deeply anesthetized with pentobarbital sodium (50 mg/kg for neonatal rat and 100 mg/kg for adult mice, intraperitoneal injection). Two stainless steel screws (1 mm in diameter) were inserted in the skull above the cortex as EEG recording electrodes, one ground electrode as well as one reference electrode were located +1.8 mm anterior to bregma, ±0.5 mm lateral to the midline, and 1 mm below the cortical surface. All electrodes were attached to a micro-connector and fixed onto the skull with dental cement. After surgery, neonatal rats were returned to their mothers and allowed to recover for 2 days prior to subsequent EEG recording. The adult mice were single housed in order to prevent damage of the implanted electrodes and allowed to recover at least 5 days before EEG recording.
The baseline of EEG was recorded for 0.5-1 hr to allow the animal to adapt to the environment. Kainic acid (2 mg/kg) was administered intraperitoneally (i.p.) for neonatal epilepsy induction. D-gluconic acid sodium salt (2 g/kg) or 0.9% saline was injected i.p. 10 min after KA administration. Pentylenetetrazol (PTZ) was administered intraperitoneally for inducing a stable epileptic burst activity in adult mice, and D-gluconic acid sodium salt (1 g/kg and 2 g/kg) or 0.9% saline was injected i.p. 10 min before PTZ administration. Epileptiform activity was monitored for 1 hr after PTZ injection. Qian et al., “Epileptiform response of CA1 neurones to convulsant stimulation by cyclothiazide, kainic acid and pentylenetetrazol in anaesthetized rats” Seizure 20:312-319 (2011). After the experiment, animals were injected with diazepam to protect the animals from recurrent epilepsy.
Power was calculated in 1-min time windows by integrating the power of dominant frequency bands from 1 to 100 Hz (EEG band).

CLC-3 Cl− channels = molecular target: T1, CLC-3 Cl− channels (Mus musculus, UniProt P51791); experiment: Voltage-dependent outward rectifying Cl− currents in CA3 pyramidal neurons of hippocampal slices; type: cell-based; details: P8-12 neonatal mice; 20 mM NaGcA, 10 mM Mg(GcA)2, 20 mM gluconic acid
T1 construct: CA3 pyramidal neurons of hippocampal slices from neonatal mice; from tissue; host or cells: acute hippocampal slices (CA3 pyramidal neurons), C57BL/6 mice
T1 sequence (P51791 1-818): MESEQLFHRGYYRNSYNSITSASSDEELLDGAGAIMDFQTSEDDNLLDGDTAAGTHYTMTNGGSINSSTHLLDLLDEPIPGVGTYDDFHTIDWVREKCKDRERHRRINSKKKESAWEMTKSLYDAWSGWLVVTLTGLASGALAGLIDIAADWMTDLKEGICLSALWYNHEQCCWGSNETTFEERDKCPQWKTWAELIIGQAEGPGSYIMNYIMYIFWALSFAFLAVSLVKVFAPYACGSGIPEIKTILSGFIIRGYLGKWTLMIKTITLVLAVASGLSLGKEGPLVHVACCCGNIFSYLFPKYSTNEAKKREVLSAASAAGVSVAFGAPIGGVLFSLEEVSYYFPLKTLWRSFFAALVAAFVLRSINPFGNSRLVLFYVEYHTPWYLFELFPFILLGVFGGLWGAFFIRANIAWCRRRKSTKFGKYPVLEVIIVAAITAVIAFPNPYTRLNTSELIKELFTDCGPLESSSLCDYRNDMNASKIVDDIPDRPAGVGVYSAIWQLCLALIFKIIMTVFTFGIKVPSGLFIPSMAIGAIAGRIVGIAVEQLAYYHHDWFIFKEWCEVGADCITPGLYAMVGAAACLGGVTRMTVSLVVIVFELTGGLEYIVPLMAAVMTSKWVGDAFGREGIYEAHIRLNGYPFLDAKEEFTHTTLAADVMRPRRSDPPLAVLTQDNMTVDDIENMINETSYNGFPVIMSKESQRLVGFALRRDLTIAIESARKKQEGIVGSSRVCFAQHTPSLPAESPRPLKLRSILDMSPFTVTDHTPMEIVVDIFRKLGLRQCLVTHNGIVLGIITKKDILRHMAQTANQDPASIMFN

[4] = test system: cultured cortical neurons; experiment: Epileptiform burst activity in cultured cortical neurons (whole-cell patch-clamp); type: cell-based, mouse; details: CTZ 10 μM, 24 hrs, blocker 100 μM
Description: Mouse cortical neurons were prepared from newborn C57BL/6 mice as previously described. Qi et al., “Cyclothiazide induces robust epileptiform activity in rat hippocampal neurons both in vitro and in vivo” The Journal Of Physiology 571:605-618 (2006). Briefly, the newborn mouse cerebral cortices were dissected out in ice-cold HEPES-buffered saline solution, washed and digested with 0.05% trypsin-EDTA at 37° C. for 20 min. After deactivation of trypsin with serum-containing medium, cells were centrifuged, resuspended, and seeded on a monolayer of cortical astrocytes at a density of 10,000 cells/cm^2 in 24-well plates. The neuronal culture medium contained MEM (500 ml, Invitrogen), 5% fetal bovine serum (Atlanta Biologicals), 10 ml B-27 supplement (Invitrogen), 100 mg NaHCO3, 2 mM Glutamax (Invitrogen), and 25 units/ml penicillin & streptomycin. AraC (4 μM, Sigma) was added to inhibit the excessive proliferation of astrocytes. Cell cultures were maintained in a 5% CO2-humidified incubator at 37° C. for 14-21 days.
The cultured neurons were placed in the recording chamber with continuous perfusion of the bath solution consisting of (mM): 128 NaCl, 10 Glucose, 25 HEPES, 5 KCl, 2 CaCl2, 1 MgSO4, pH 7.3 adjusted with NaOH, and osmolarity ˜300 mOsm. For recording spontaneous firing under current clamp mode, pipettes were filled with an internal solution containing (in mM): 125 K-gluconate, 5 Na-phosphocreatine, 5 EGTA, 10 KCl, 10 HEPES, 4 Mg-ATP, 0.3 Na-GTP, 280-290 mOsm, pH 7.3 adjusted with KOH. Epileptiform activity in cultured neurons was induced either by 10 μM CTZ for 24 h, or 1 μM KA for 2 h, or 50 μM 4-AP for 2 h. The burst activity was defined as previously described. Qi et al., “Cyclothiazide induces robust epileptiform activity in rat hippocampal neurons both in vitro and in vivo” The Journal Of Physiology 571:605-618 (2006). In brief, at least five consecutive action potentials overlaying on top of the large depolarization shift (≥10 mV depolarization and ≥300 ms in duration).

Cl− channels = experiment: Cl− current recording in cultured cortical neurons; type: cell-based, mouse; details: blocker 100 μM
neonatal seizures = details: infant babies, clinical trial (Pressler et al.); cited from earlier work

Cc1csc(NC(=O)CSc2ccc(-c3ccccc3)nn2)n1 [VU0240551]
spike activity elicited by isoguvacine after 0 Mg2+ treatment [1]: did not change | positive EGABA shift induced by 0 Mg2+ aCSF [2]: no effect | EGABA in 0 Mg2+ aCSF [2]: −48.9±1.3 mV | EGABA in normal aCSF [2]: −60.8±1.9 mV

O=C(O)c1cccnc1Nc1cccc(C(F)(F)F)c1 [NFA, niflumic acid, reference compound]
epileptic activity in neonatal hippocampal slices (other Cl− channel blockers) (hippocampal slices): inhibit neonatal seizures

CCC1(c2ccccc2)C(=O)NC(=O)NC1=O [phenobarbital, reference compound]
reduction of relative EEG power [3]: 35.5%

O=C(O)[C@H](O)[C@@H](O)[C@H](O)[C@H](O)CO [gluconic acid]
Cl− current inhibition by gluconic acid with various counter ions (CLC-3 Cl− channels): equivalent Cl− current inhibition

magnesium gluconate
Cl− current inhibition by gluconic acid with various counter ions (CLC-3 Cl− channels): equivalent Cl− current inhibition

O=S(=O)([O-])c1cc(N=C=S)ccc1C=Cc1ccc(N=C=S)cc1S(=O)(=O)[O-].[Na+].[Na+] [DIDS, 4,4′-Diisothiocyanato-2,2′-stilbenedisulfonic acid disodium salt, reference compound]
epileptiform activity induced by CTZ ([4]; disodium salt): significantly inhibited; also recorded: potently inhibited | Cl− currents (inhibition by classic Cl− channel blockers) (Cl− channels; disodium salt): significantly suppressed; also recorded: persistent inhibition

O=C(O)c1cc([N+](=O)[O-])ccc1NCCCc1ccccc1 [NPPB, 5-Nitro-2-(3-phenylpropylamino) benzoic acid, reference compound]
epileptiform activity induced by CTZ [4]: significantly inhibited; also recorded: potently inhibited | Cl− currents (inhibition by classic Cl− channel blockers) (Cl− channels): significantly suppressed; also recorded: inhibited | epileptic activity in neonatal hippocampal slices (other Cl− channel blockers) (hippocampal slices): inhibit neonatal seizures

CCCCNc1cc(C(=O)O)cc(S(N)(=O)=O)c1Oc1ccccc1 [bumetanide]
effect in treating neonatal seizure (clinical trial) (neonatal seizures): very limited effect | side effects (clinical trial) (neonatal seizures): severe side effects | epileptic seizure (burst) activity in EEG ([3]; P10-12, KA 2 mg/kg i.p., drug i.p. 10 min after KA: NaGcA 2 g/kg, phenobarbital 25 mg/kg, bumetanide 2 mg/kg): not as potent as gluconate | reduction of relative EEG power [3]: 54.3% | spike activity elicited by isoguvacine after 0 Mg2+ treatment [1]: did not change | positive EGABA shift induced by 0 Mg2+ aCSF [2]: did not abolish | EGABA in 0 Mg2+ aCSF [2]: −50.2±1.4 mV | EGABA in normal aCSF [2]: −68.0±1.7 mV
